Assay results published in US5360803A, “Composition and method for treating cancer” (Dan Farber Cancer Institute, priority 1992, dated 1994).
Like-named read-outs stand apart in the source and are kept apart here.

Tests used:
[1] = tested on: CX-1 cells; experiment: selective killing assay, colony number reduced to 50% of control, human colon carcinoma cell line CX-1; assay type: cell-based; conditions: for Selectivity (ratio of IC50 for CV-1 and IC50 for CX-1): CV-1/CX-1; for CX-1 (IC50): Table III; for CX-1 (IC50) / IC50: human colon carcinoma, 24 hours treatment, colony count after 7 to 10 days; for IC50: Homo sapiens, CX-1, Table III;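 on all read-outs here: colonies stained with crystal violet and counted, control cells given medium alone, exposure at 37 °C, normal monkey kidney epithelial CV-1 cells as the non-cancer comparator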
[2] = tested on: human melanoma LOX; experiment: survival of nude mice implanted with human melanoma LOX; assay type: in vivo, male athymic Swiss nu/nu mouse (human tumor)
Method: LOX, a human melanoma cell line, grown subcutaneously in nude mice was excised, trypsinized to yield a single cell suspension using a metal grid with a […] mesh. […] Five million viable trypan blue negative cells made up in 0.1 ml of Dulbecco modified Eagle medium (DMFE) were injected into the peritoneal cavity of a male athymic Swiss nu/nu mouse. The control group and each treatment group consisted of 5 to 10 mice. Treatment was commenced the following day by intraperitoneal injection.
Ten control mice received 0.25 ml of 2% dextrose on these days the treated groups were injected with the compounds of this invention. […] T/C is the ratio, expressed as a percentage of the mean survival age of the treated group to the mean survival age of the untreated control group.

[3] = tested on: CV-1 cells; experiment: selective killing assay, colony number reduced to 50% of control, normal monkey kidney epithelial cell line CV-1; assay type: cell-based; conditions: 24 hours treatment; for IC50: Primates
Text: (§1) The control received culture media only.

[4] = tested on: EJ cells; experiment: colony assay of Example 1 with human bladder carcinoma EJ cell line; assay type: cell-based; conditions: for Selectivity: CV-1/EJ; for EJ (IC50) / IC50: Table IV, human bladder carcinoma, 24 hours treatment; for IC50: Homo sapiens, EJ, 24 h;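 on all read-outs here: colony formation assay with 24 h compound exposure at 37 °C, then 7–10 days drug-free regrowth, colonies stained with crystal violet, controls given medium alone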
Method: Human colon carcinoma cell line CX-1 or normal monkey kidney epithelial cell line CV-1 was chosen as representatives of cancer cells and normal cells, respectively. […] CX-1 cells (2,000 cells/well) and CV-1 cells (1,000 cells/well) were plated in 24-well plastic culture plates. […] The control received culture media only. Cells were treated with compounds of General Formulas (I) to (V) at 37° C. for 24 hours. After rinsing with fresh culture medium three times, the cells were further incubated at 37° C. for 7 to 10 days. Cell colonies were fixed and stained with 2% crystal violet in 70% ethanol for 10 minutes and rinsed in water. […] The selectivity is defined as the ratio of IC50 for CV-1 and IC50 for CX-1.

[5] = tested on: LOX cells; experiment: colony assay of Example 1 with human melanoma LOX cell line; assay type: cell-based; conditions: for Selectivity: CV-1/LOX; for LOX(IC50) / IC50: Table V, human melanoma, 24 hours treatment; for IC50: Homo sapiens, LOX, 24 h;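 on all read-outs here: colony formation assay with 24 h exposure at 37 °C, then 7 to 10 days of regrowth, crystal violet staining of colonies, control wells given medium alone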
[6] = tested on: CRL 1420 cells; experiment: colony assay of Example 1 with human pancreatic carcinoma CRL 1420 cell line; assay type: cell-based; conditions: for Selectivity: CV-1/CRL-1420;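 on all read-outs here: colony formation assay, cells exposed for 24 h then regrown 7 to 10 days without compound, colonies stained with crystal violet, control given medium alone, normal reference CV-1 monkey kidney epithelial cells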
[7] = tested on: MCF-7 cells; experiment: colony assay of Example 1 with human breast carcinoma MCF-7 cell line; assay type: cell-based
Text: as §1

[8] = Table III, normal monkey kidney epithelial cells, colony count after 7 to 10 days
[9] = CV-1, Table III, normal monkey kidney epithelial cells, colony count after 7 to 10 days
[10] = 5 mg/kg i.p. on day 1, 4, 8, 11
[11] = Table VII, human pancreatic carcinoma, 24 hours treatment

Q: With CCn1c(=Cc2oc3ccccc3[n+]2CC)sc(=C2Sc3ccccc3N2C)c1=O [Compound 245] as the compound, how does the “Selectivity (ratio of IC50 for CV-1 and IC50 for CX-1)” value [1] read?
A: 350

Q: What about the “CX-1 (IC50)” value [1] of the same compound?
A: 7 µg/mL

Q: What about the response vs control in vivo at 15 mg/kg ([2]; Mus musculus, ip, 24 h, 15 mg/kg i.p. on day 1, 5, 9, 13, 19, read-out: T/C) of the same compound?
A: 200%

Q: What about the “CV-1 (IC50)” value [3, 8] of the same compound?
A: 0.02 µg/mL

Q: What does the source list for C=CCn1c(=Cc2oc3ccccc3[n+]2CC)sc(=C2Sc3ccccc3N2C)c1=O [Compound 3]?
A: Selectivity (ratio of IC50 for CV-1 and IC50 for CX-1) [1]: 200; IC50 [1]: 0.03 µg/mL; response vs control in vivo at 5 mg/kg ([2]; Mus musculus, ip, 24 h, 5 mg/kg i.p. on day 1, 4, 8, 11, 14, 16, read-out: T/C): 218%; IC50 [3, 9]: 6 µg/mL

Q: Which results are given for CCn1c(=Cc2oc3ccccc3[n+]2C)sc(=C2Sc3ccccc3N2C)c1=O [Compound 14]?
A: Selectivity [4]: 400; EJ (IC50) [4]: 0.05 µg/mL; Selectivity (ratio of IC50 for CV-1 and IC50 for CX-1) [1]: 667; CX-1 (IC50) [1]: 0.03 µg/mL; T/C [2, 10]: 147%; Selectivity [5]: > 300; LOX(IC50) [5]: < 0.1 µg/mL; Selectivity [6]: 400; CRL-1420(IC50) [6, 11]: 0.05 µg/mL; CV-1 (IC50) [3, 8]: 20 µg/mL; CV-1 (IC50) ([3]; Table IV): 20 µg/mL; CV-1 (IC50) ([3]; Table V): > 30 µg/mL; CV-1 (IC50) ([3]; Table VII): 20 µg/mL

Q: For CCn1c(=Cc2sc3ccccc3[n+]2CC)sc(=C2Sc3ccc4ccccc4c3N2C)c1=O [Compound 310], which Selectivity [4] is on record?
A: 400

Q: And the IC50 [4]?
A: 0.005 µg/mL

Q: And the response vs control in vivo at 8 mg/kg ([2]; Mus musculus, ip, 24 h, 8 mg/kg i.p. on day 1, 3, 4, 6, 8, 10, read-out: T/C)?
A: 206%

Q: And the Selectivity [5]?
A: 400

Q: What about the IC50 [5] of the same compound?
A: 0.005 µg/mL

Q: And the Selectivity [6]?
A: 400

Q: What about the IC50 ([6]; Homo sapiens, 24 h, Table VII, human pancreatic carcinoma, 24 hours treatment) of the same compound?
A: 0.005 µg/mL

Q: What about the IC50 ([3]; CV-1, 24 h, Table IV) of the same compound?
A: 2 µg/mL

Q: And the IC50 ([3]; CV-1, 24 h, Table V)?
A: 2 µg/mL

Q: What about the IC50 ([3]; CV-1, 24 h, Table VII) of the same compound?
A: 2 µg/mL

Q: CCn1c(=Cc2oc3c4ccccc4ccc3[n+]2CC)sc(=C2Oc3ccc4ccccc4c3N2C)c1=O [Compound 316] was tested. Which “Selectivity (ratio of IC50 for CV-1 and IC50 for CX-1)” value [1] did it give?
A: 100

Q: What about the “CX-1 (IC50)” value [1] of the same compound?
A: 0.01 µg/mL

Q: What about the response vs control in vivo at 5 mg/kg ([2]; Mus musculus, ip, 24 h, 5 mg/kg i.p. on day 1, 4, 8, 10, 12, read-out: T/C) of the same compound?
A: > 340%

Q: And the “CV-1 (IC50)” value [3, 8]?
A: 1 µg/mL

Q: How did the Selectivity [4] turn out when CCn1c(=Cc2oc3c4ccccc4ccc3[n+]2CC)sc(=C2Sc3ccc4ccccc4c3N2C)c1=O [Compound 315] was run?
A: 4000

Q: What about the “EJ (IC50)” value [4] of the same compound?
A: 0.005 µg/mL

Q: What about the Selectivity [5] of the same compound?
A: 4000

Q: And the “LOX(IC50)” value [5]?
A: 0.005 µg/mL

Q: What about the Selectivity [6] of the same compound?
A: 4000

Q: What about the “CRL-1420(IC50)” value [6, 11] of the same compound?
A: 0.005 µg/mL

Q: And the Selectivity ([7]; CV-1/MCF-7)?
A: 400

Q: What about the IC50 ([7]; Homo sapiens, MCF7, 24 h, Table VI, human breast carcinoma, 24 hours treatment) of the same compound?
A: 0.05 µg/mL

Q: What about the IC50 ([3]; CV-1, 24 h, Table VI) of the same compound?
A: 20 µg/mL

Q: What does the source list for CCn1c(=Cc2sc3c4ccccc4ccc3[n+]2CC)sc(=C2Sc3ccc(OC)cc3N2C)c1=O [Compound 53]?
A: Selectivity (ratio of IC50 for CV-1 and IC50 for CX-1) [1]: 250; IC50 [1]: 0.04 µg/mL; response vs control in vivo at 10 mg/kg ([2]; Mus musculus, ip, 24 h, 10 mg/kg i.p. on day 1, 2, 3, 5, 8, 10, 13, read-out: T/C): 150%; IC50 [3, 9]: 10 µg/mL

Q: Which results are given for CCn1c(=Cc2sc3ccccc3[n+]2CC)sc(=C2Sc3ccc(C)cc3N2C)c1=O [Compound 50]?
A: Selectivity (ratio of IC50 for CV-1 and IC50 for CX-1) [1]: 200; IC50 [1]: 0.04 µg/mL; response vs control in vivo at 5 mg/kg ([2]; Mus musculus, ip, 24 h, 5 mg/kg i.p. on day 1, 2, 3, 6, 9, 10, 13, read-out: T/C): 163%; IC50 [3, 9]: 8 µg/mL

Q: Which results are given for CCn1c(=Cc2oc3ccccc3[n+]2C)sc(=C2Sc3ccccc3N2C)c1=O [Compound 15]?
A: Selectivity [4]: 100; EJ (IC50) [4]: 0.2 µg/mL; Selectivity (ratio of IC50 for CV-1 and IC50 for CX-1) [1]: 1000; CX-1 (IC50) [1]: 0.02 µg/mL; T/C [2, 10]: 163%; Selectivity [5]: 286; LOX(IC50) [5]: 0.07 µg/mL; Selectivity [6]: 500; CRL-1420(IC50) [6, 11]: 0.04 µg/mL; CV-1 (IC50) [3, 8]: 20 µg/mL; CV-1 (IC50) ([3]; Table IV): 20 µg/mL; CV-1 (IC50) ([3]; Table V): 20 µg/mL; CV-1 (IC50) ([3]; Table VII): 20 µg/mL

Q: For CCn1c(=Cc2oc3ccccc3[n+]2C)oc(=C2Sc3ccccc3N2C)c1=O [Compound 11], which Selectivity [4] is on record?
A: > 400

Q: And the IC50 [4]?
A: 0.05 µg/mL

Q: And the “Selectivity (ratio of IC50 for CV-1 and IC50 for CX-1)” value [1]?
A: > 667

Q: What about the IC50 [1] of the same compound?
A: 0.03 µg/mL

Q: And the response vs control in vivo at 5 mg/kg ([2]; Mus musculus, ip, 24 h, 5 mg/kg i.p. on day 1, 4, 8, 11, read-out: T/C)?
A: 132%

Q: What about the Selectivity [5] of the same compound?
A: > 300

Q: And the IC50 [5]?
A: < 0.1 µg/mL

Q: What about the IC50 ([3]; CV-1, 24 h, Table IV) of the same compound?
A: > 20 µg/mL

Q: And the IC50 ([3]; CV-1, 24 h, Table V)?
A: > 30 µg/mL

Q: And the IC50 [3, 9]?
A: > 20 µg/mL

Q: With CCn1c(=Cc2sc3c4ccccc4ccc3[n+]2CC)sc(=C2Sc3ccc4ccccc4c3N2C)c1=O [Compound 204] as the compound, how does the “Selectivity (ratio of IC50 for CV-1 and IC50 for CX-1)” value [1] read?
A: 667

Q: And the “CX-1 (IC50)” value [1]?
A: 0.03 µg/mL

Q: And the response vs control in vivo at 10 mg/kg ([2]; Mus musculus, ip, 24 h, 10 mg/kg i.p. on day 1, 4, 8, 10, 12, read-out: T/C)?
A: > 270%

Q: What about the Selectivity [5] of the same compound?
A: 222

Q: What about the “LOX(IC50)” value [5] of the same compound?
A: 0.09 µg/mL

Q: And the Selectivity [6]?
A: 500

Q: What about the “CRL-1420(IC50)” value [6, 11] of the same compound?
A: 0.04 µg/mL

Q: What about the “CV-1 (IC50)” value [3, 8] of the same compound?
A: 20 µg/mL

Q: And the “CV-1 (IC50)” value ([3]; Table V)?
A: 20 µg/mL

Q: And the “CV-1 (IC50)” value ([3]; Table VII)?
A: 20 µg/mL
